In patent US6872712B1, “Cyclic glycerophosphates and analogs thereof” (Yeda Research and Development Co. Ltd., priority 1999, dated 2005):

How the values were obtained:
perforated CHO cells = test: Intracellular binding in perforated CHO cells (displacement of 1,3-cP32P); set-up: species or system Chinese hamster; settings: 20 μM 1,3-cP32P, 5 minutes at 4° C., increasing amounts of competitor (FIG. 9)
Description: Radioactivity was scored after 2 washings with PBS at 4° C. as above. […] In this set of experiments the number of displaceable (i.e. specifically bound) ligands was estimated to be in the range of 10^7-10^8 per cell.

[1] = tested on: tyrosine phosphorylated proteins in NIH 3T3 cells; test: Tyrosine phosphorylation in NIH 3T3 cells (Western blot with anti-phosphotyrosine antibodies); format: cell-based; settings: 1 min or 5 mins at 37° C., 0.5, 1, 2 or 4 μM, monoclonal antibodies (FIG. 3)
Description: NIH-3T3 cells were grown under similar conditions in 1640 Eagle medium at 10% bovine calf serum plus 2 mM glutamine.
The cyclic phosphates 1,3 cGP, 1,3 cPP, 1,2 cGP, 1,2 cPP, P-1,3 cGP and P-1,3 cPP and the controls αGP and βGP were dissolved in HBSS, or methanol to form stocks of 1 mM or 10 mM. They were diluted into the cell culture medium to a final concentration of up to 20 μM. At the assigned stimulation time (0.5-20 min.) the medium was aspirated under vacuum and the cells were washed 3 times with cold (4° C.) phosphate buffered saline (PBS). The cells were then freeze-thawed 3 times with liquid nitrogen in 0.5 ml of a lysis buffer of PBS containing 1 mM phenylmethylsulfonyl fluoride, a cocktail of protease inhibitors (aprotinin, leuproptin, pepstatin A, phenanthroline, benzamidine HCl each at a concentration of 10 μg/ml) and a cocktail of phosphatase inhibitors (80 mM β-glycerophosphate, 2 mM EGTA and 50 μM Na3VO4), and then scraped off. The lysate was then vortexed and centrifuged for 2 minutes at 12.000 g. […] The protein concentration in each sample, as evaluated by the Bradford assay, was in the range of 1-1.5 mg/ml. […] Bound antibodies were detected by horseradish peroxidase-conjugated anti-rabbit antibodies (Transduction Laboratories, Lexington Ky.) after 2 hours incubation at room temperature, using the conventional ECL detection method. […]

[2] = Stability of cyclic phosphates in PBS / aqueous solution (TLC); format: physicochemical; settings: 10 mg/ml in PBS, 37°, up to 24 hours
cell lysate phosphatases = test: Inhibition of phosphatase activity of cell lysate (PNPP substrate); format: biochemical; settings: 50 μM, 50 mM PNPP, 90 minutes at 37° C., pH 7.4
Description: Inhibition of phosphatase activity of cell lysate by cyclic phosphates was assayed in 1.0 ml of 50 mM Tris-HCl buffer, pH 7.4, containing 50 mM p-nitrophenyl phosphate, PNPP, as a substrate. Reaction was initiated by the addition of crude cell lysate (100 μg/ml final protein concentration) and terminated after 90 minutes at 37° C. by an addition of 50 μl of 1M NaOH. […] Assays were conducted under the same conditions as above in the presence of 50 μM cyclic phosphate. The enzyme activity in the absence of inhibitor was taken as 100% activity.

K562 leukemia cells = test: Differentiation of K562 leukemia cells (hemoglobin, benzidine assay); format: cell-based; settings: 4 days, 10 μM 1,3 cPP in combination with 1.5 mM sodium butyrate (FIG. 13)
Description: K562 leukemia cells are able to differentiate to the erythroid lineage. Such differentiation is characterized by the cells' ability to synthesize hemoglobin. Sodium butyrate is a known differentiation agent of such leukemia cells.
In this example, the ability of 1,3 cPP, α-GP and sodium butyrate alone and n combination to cause differentiation of K562 cells was evaluated using the known benzidine assay.
K562 cells were incubated for a period of 4 days with the following: • (a) growth medium (control); • (b) 10 μM of 1,3 cPP; • (c) […] of α-GP; • (d) 1.5 mM of sodium butyrate; • (e) a combination of sodium butyrate and 1,3 cPP; and • (f) sodium butyrate and α-GP.

CHO cells = test: Uptake of 32P labeled 1,3-cPP by CHO cells; format: cell-based, Chinese hamster; settings: intact CHO cells, increasing amounts of unlabeled compound
Description: After 2 washings with PBS the cells were disintegrated in 1 M NaOH and radioactivity was scored with a β counter. The insert presents the magnified uptake profile for short incubations (up to 2 minutes) where the intercept (0 time incubation) corresponded to approximately 3×10^6 molecules per cell, while at equilibrium (above 2 hours incubation) incorporation corresponded to approximately 2×10^8 molecules per cell.

[3] = tested on: tyrosine phosphorylated proteins in CHO cells; test: Tyrosine phosphorylation in CHO cells (Western blot with anti-phosphotyrosine antibodies); format: cell-based, Chinese hamster; settings: CHO cells, 1, 3, 5 or 10 mins at 37° C., 1 μM or 2 μM, monoclonal antibodies (FIG. 2)
Description: Chinese hamster ovary (CHO) cells (Puck, 1985; Gottesman, 1987) and NIH-3T3 cells (NIH), were used in the following experiments. CHO cells were grown at 37° C. in a humidified 5% CO2 atmosphere in 60×15 mm Petri dishes (Falcon) containing F12 medium supplemented with 10% fetal calf serum (FCS) and 2 mM glutamine. When reaching near confluence, the cells were placed under overnight starvation by replacing the medium to F12+2 mM glutamine with 0.1% FCS. The stimulation experiments were performed with cells which were under starvation for 12-18 hours.
The cyclic phosphates 1,3 cGP, 1,3 cPP, 1,2 cGP, 1,2 cPP, P-1,3 cGP and P-1,3 cPP and the controls αGP and βGP were dissolved in HBSS, or methanol to form stocks of 1 mM or 10 mM. They were diluted into the cell culture medium to a final concentration of up to 20 μM. At the assigned stimulation time (0.5-20 min.) the medium was aspirated under vacuum and the cells were washed 3 times with cold (4° C.) phosphate buffered saline (PBS). […] The protein concentration in each sample, as evaluated by the Bradford assay, was in the range of 1-1.5 mg/ml. […] Bound antibodies were detected by horseradish peroxidase-conjugated anti-rabbit antibodies (Transduction Laboratories, Lexington Ky.) after 2 hours incubation at room temperature, using the conventional ECL detection method. […]

[4] = tested on: T47D human breast cancer cells; test: Proliferation of T47D human breast cancer cells (3H-thymidine); format: cell-based; settings: 50 μM 1,3-cPP salt, days 1, 2 and 3 (P 0.0370, 0.0192, 0.0238) (FIG. 12)
Description: In this experiment, 8×10^4 T47D (clone 11) human breast cancer cells were plated in sets of 6 in 96 well microtiter plates and titrated concentrations (1-50 μM final concentrations) of 1,3-cPP salt in complete medium were added to the cultures at the beginning of the experiment only in a total volume of 200 μl per well. Plates were incubated at 37° C. over the course of 5 days, where 1 plate was pulsed with ^3H-thymidine (Sigma) overnight each day and subsequently frozen. All the plates were harvested together (Packard Micromate 196 Harvester, Merriden, Conn.) and scored on a 96 well plate reader (Packard Matrix 96, Merriden, Conn.).

insulin receptor = test: Tyrosine phosphorylation of the insulin receptor in CHO-T cells; format: cell-based; settings: 20 mins, 0.1 μM 1,3 cPP in combination with 0.1 nM insulin (FIG. 10)
Description: Group 4: 0.1 μM 1,3, cPP only.
Tyrosine phosphorylation was determined using anti-phosphotyrosine antibody (as described above).

[5] = Stability of cyclic phosphates in cell lysates (TLC); settings: 10 mg/ml in PBS mixed with CHO or NIH-3T3 cell lysate (0.1 mg/ml protein), 37°, up to 24 hours
Description: This distinct difference allowed the qualitative detection of hydrolysis of the cyclic phosphate.

Structure (SMILES): O=P1(O)OCCCO1 [1,3 cPP, 1,3 cyclic propanediol phosphate]
- displacement of 1,3-cP32P in perforated CHO cells (perforated CHO cells): specific binding
- level of tyrosine phosphorylated proteins [1]: augmented tyrosine phosphorylation
- hydrolysis to the linear form in PBS [2]: No hydrolysis
- inhibition of cell lysate phosphatase activity (cell lysate phosphatases): 15-20%
- synthesis of hemoglobin relative to sodium butyrate alone (K562 leukemia cells): 3 fold
- effect of unlabeled competitor on the uptake profile of 1,3-cP32P (CHO cells): remained essentially unaltered
- level of tyrosine phosphorylated proteins [3]: phosphorylation was most markedly seen in the band(s) having a molecular weight of about 35 kD and about 45 kD
- proliferation versus cells in growth medium only [4]: significant inhibition
- phosphorylation of insulin receptor (117 kD and 200 kD bands) relative to insulin only (insulin receptor): almost doubled
- hydrolysis to the linear form by cell lysate [5]: No hydrolysis
